From patent US8653092B2, “Tetrahydro-pyrido-pyrimidine derivatives” (Novartis AG, priority 2010, dated 2014) come the findings set out here.

Assay [1] addresses human phosphoinositide-3 kinase (PI3K) delta (Homo sapiens (Human), UniProt O00329). Description: PI3K-mediated Akt 1/2 (S473) phosphorylation in Rat-1 cells (AlphaScreen SureFire). The class given is cell-based. The note with it: Rat-1 cells overexpressing myristoylated human PI3K delta, p-Akt (Ser473); read-out: Cell PI3Kδ/ IC50 [umol l − 1]. How it is done: Rat-1 cells stably overexpressing a myristoylated form of the catalytic subunit of human phosphoinositide-3 kinase (PI3K) alpha, beta or delta were plated in 384-well plates at a density of 7500 (PI3K alpha), 6200 (PI3K beta), or 4000 (PI3K delta) cells in 30 ul complete growth medium (Dulbecco's modified Eagle's medium (DMEM high glucose) supplemented with 10% (v/v) fetal bovine serum, 1% (v/v) MEM non essential amino acids, 10 mM HEPES, 2 mM L-glutamine, 10 μg/mL puromycin and 1% (v/v) Penicillin/Streptomycin) and were incubated at […]/5% CO2/95% humidity for 24 h. Compounds were diluted in 384-well compound plates to obtain 8-point serial dilutions for 40 test compounds in 90% DMSO, as well as 4 reference compounds plus 16 high controls and 16 low (inhibited) controls. Predilution plates were prepared by dispensing pipetting 250 nl of compound solutions into 384-well polypropylen plates using a Hummingwell nanoliter dispensor. Compounds were prediluted by the addition of 49.75 ul complete growth medium. 10 ul of prediluted compound solution were transferred to the cell plate using a 384-well pipettor, resulting in a final DMSO concentration of 0.11%. Cells were incubated for 1 h at […]/5% CO2/95% humidity. The supernatant was removed, the cells were lysed in 20 ul of lysis buffer for AlphaScreen® SureFire® detection.
For detection of p-AKT (Ser473), the SureFire® p-Akt 1/2 (Ser473) Assay Kit (PerkinElmer, U.S.A) was used. 5 ul of cell lysate was transferred to 384-well low volume Proxiplates for detection using a 384-well pipettor. Addition of AlphaScreen® SureFire® reagents was done according to the manufacturer's protocol. First, 5 ul of reaction buffer plus activation buffer mix containing AlphaScreen® acceptor beads was added, the plate was sealed, and incubated on a plate shaker for 2 hours at room temperature. Second, 2 ul of dilution buffer containing AlphaScreen® donor beads was added, and the plate was incubated on plate shaker as above for a further 2 hours. The plate was read on an AlphaScreen® compatible plate reader, using standard AlphaScreen® settings.
In general terms: Bead proximity is the source of the signal in Alpha formats.

A further assay deals with PI3K delta (Homo sapiens (Human), UniProt O00329). Description: Enzymatic PI3K delta isoform inhibition (lipid kinase, Kinase-Glo luminescence). Format: biochemical. To be noted: enzymatic assay.
A further assay deals with murine B cells. The assay can be described thus: Murine B cell activation: CD86 upregulation after anti-IgM stimulation. The class given is cell-based, mouse. To be noted: read-out: mCD86/IC50 CD86 [nmol l − 1]. How it is done:
Spleens from Balb/c mice were collected, splenocytes were isolated and washed twice with RPMI containing 10% foetal bovine serum (FBS), 10 mM HEPES, 100 Units/mL penicilline/streptomycine. RPMI supplemented in this way is subsequently referred to as medium. The cells were adjusted to 2.5×10^6 cells/mL in medium and 200 μl cell suspension (5×10^6 cells) were added to the appropriate wells of 96 well plates.
Then the cells were stimulated by adding 50 μl anti-IgM mAb in medium (final concentration: 30 μg/mL). After incubation for 24 hours at 37° C., the cells were stained with the following antibody cocktails: anti-mouse CD86-FITC, anti-mouse CD69-PerCP-Cy5.5, anti-mouse CD19-PerCP for the assessment of B cells, and anti-mouse CD3-FITC, anti-mouse CD69-PE for the assessment of T cells (2 μl of each antibody/well). After one hour at room temperature (RT) in the dark the cells were transferred to 96 Deepwell plates. The cells were washed once with 1 mL PBS containing 2% FBS and after re-suspension in 200 μl the samples were analyzed on a FACS Calibur flow cytometer. Lymphocytes were gated in the FSC/SSC dot plot according to size and granularity and further analyzed for expression of CD19, CD3 and activation markers (CD86, CD69). Data were calculated from dot blots as percentage of cells positively stained for activation markers within the CD19+ or CD3+ population using BD CellQest Software.
For assessing the inhibitory property of compounds, compounds were first dissolved and diluted in DMSO followed by a 1:50 dilution in medium. Splenocytes from Balb/c mice were isolated, re-suspended and transfered to 96 well plates as described above (200 μl/well). The diluted compounds or solvent were added to the plates (25 μl) and incubated at 37° C. for 1 hour. Then the cultures were stimulated with 25 μl anti-IgM mAb/well (final concentration […]) for 24 hours at 37° C. and stained with anti-mouse CD86-FITC and anti-mouse CD19-PerCP (2 μl of each antibody/well). CD86 expression on CD19 positive B cells was quantified by flow cytometry as described above.

For the next assay, the target named is PI3K alpha (Homo sapiens (Human), UniProt P42336). Description: Enzymatic PI3K alpha isoform inhibition (lipid kinase, Kinase-Glo luminescence). To be noted: enzymatic assay. The class given is biochemical. (Kinase-Glo reads ATP consumption through a luciferase reaction.)
The mark [2] stands for this setting: Balb/c mouse splenocytes, anti-IgM 24 h, CD86 on CD19+ B cells.

Read-outs that look alike come from different tables or passages of the source.

PI3K delta, sequence (O00329 other isoform, or with tags, fused parts or gaps linker GGGGGG): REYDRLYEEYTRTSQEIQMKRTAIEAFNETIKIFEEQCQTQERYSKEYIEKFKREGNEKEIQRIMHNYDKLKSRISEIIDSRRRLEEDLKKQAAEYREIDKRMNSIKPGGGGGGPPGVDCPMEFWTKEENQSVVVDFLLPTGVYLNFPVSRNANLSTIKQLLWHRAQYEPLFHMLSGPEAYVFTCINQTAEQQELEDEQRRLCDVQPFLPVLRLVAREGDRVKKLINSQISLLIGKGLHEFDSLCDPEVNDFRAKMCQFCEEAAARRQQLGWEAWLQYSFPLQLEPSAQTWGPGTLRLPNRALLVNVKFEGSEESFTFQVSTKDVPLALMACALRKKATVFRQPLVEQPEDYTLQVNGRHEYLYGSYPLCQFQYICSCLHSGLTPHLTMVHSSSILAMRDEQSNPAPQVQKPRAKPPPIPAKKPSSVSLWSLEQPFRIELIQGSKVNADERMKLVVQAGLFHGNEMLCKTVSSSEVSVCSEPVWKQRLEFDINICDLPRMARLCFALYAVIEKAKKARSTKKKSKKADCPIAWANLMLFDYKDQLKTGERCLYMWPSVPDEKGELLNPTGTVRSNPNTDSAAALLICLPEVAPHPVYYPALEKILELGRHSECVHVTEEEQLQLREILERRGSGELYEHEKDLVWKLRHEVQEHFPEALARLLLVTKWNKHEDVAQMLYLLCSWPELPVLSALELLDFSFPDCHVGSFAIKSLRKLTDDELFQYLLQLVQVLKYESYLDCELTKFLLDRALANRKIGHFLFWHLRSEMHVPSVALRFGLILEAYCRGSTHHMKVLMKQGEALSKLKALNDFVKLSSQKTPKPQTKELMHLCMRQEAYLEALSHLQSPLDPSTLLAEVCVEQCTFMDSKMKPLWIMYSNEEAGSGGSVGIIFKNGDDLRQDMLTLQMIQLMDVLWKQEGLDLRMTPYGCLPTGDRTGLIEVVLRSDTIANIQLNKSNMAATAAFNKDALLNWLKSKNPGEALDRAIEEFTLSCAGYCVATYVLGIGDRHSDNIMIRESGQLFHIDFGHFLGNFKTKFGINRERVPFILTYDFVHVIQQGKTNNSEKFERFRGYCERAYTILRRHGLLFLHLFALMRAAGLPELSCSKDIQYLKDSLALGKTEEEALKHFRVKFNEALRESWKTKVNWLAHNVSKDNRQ
human phosphoinositide-3 kinase (PI3K) delta, sequence (O00329 whole entry): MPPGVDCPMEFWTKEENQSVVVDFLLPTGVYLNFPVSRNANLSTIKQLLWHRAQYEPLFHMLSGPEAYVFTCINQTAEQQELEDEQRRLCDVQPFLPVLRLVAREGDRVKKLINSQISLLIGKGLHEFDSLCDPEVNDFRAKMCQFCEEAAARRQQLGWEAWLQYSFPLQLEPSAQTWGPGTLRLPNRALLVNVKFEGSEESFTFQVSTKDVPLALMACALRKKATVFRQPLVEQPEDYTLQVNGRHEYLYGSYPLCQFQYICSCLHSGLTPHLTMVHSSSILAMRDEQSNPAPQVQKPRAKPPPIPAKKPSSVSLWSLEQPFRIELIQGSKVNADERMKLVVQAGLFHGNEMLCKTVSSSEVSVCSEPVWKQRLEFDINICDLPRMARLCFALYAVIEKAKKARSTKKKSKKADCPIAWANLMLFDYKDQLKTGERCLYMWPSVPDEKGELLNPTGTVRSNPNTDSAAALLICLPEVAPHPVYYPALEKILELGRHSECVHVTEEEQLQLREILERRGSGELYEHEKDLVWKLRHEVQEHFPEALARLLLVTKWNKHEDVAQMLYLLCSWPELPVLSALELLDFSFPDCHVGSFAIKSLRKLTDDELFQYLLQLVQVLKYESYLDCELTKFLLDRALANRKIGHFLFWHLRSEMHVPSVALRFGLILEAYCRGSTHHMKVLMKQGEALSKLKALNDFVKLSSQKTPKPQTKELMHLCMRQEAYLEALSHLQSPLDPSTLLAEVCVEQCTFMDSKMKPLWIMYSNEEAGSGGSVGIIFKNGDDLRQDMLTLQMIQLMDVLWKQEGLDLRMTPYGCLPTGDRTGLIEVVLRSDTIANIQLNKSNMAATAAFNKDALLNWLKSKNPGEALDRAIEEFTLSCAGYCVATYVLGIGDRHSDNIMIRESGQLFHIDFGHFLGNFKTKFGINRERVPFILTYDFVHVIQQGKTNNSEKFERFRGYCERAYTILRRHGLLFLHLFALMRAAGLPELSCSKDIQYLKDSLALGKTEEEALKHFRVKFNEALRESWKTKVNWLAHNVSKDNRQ
human phosphoinositide-3 kinase (PI3K) delta, sequence (Q63787 whole entry partner): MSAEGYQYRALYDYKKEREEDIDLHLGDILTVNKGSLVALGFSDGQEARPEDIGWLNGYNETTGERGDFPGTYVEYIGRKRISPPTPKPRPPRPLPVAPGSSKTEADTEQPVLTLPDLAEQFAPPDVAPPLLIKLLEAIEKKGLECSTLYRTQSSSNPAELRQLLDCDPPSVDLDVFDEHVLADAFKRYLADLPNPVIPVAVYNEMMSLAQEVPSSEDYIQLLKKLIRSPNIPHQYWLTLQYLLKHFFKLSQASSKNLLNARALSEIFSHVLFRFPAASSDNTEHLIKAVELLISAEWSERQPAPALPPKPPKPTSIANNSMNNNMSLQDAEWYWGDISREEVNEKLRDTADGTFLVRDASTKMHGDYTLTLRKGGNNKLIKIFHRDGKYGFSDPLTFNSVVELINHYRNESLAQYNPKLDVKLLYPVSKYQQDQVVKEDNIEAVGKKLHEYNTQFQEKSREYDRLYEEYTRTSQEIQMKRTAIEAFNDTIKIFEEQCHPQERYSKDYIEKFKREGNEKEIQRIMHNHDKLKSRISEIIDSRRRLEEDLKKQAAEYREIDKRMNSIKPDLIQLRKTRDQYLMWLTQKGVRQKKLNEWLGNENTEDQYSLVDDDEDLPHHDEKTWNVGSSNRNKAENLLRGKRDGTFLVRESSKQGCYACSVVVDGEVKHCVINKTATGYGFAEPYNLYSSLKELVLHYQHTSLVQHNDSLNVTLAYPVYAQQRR
PI3K alpha, sequence (P42336 other isoform, or with tags, fused parts or gaps): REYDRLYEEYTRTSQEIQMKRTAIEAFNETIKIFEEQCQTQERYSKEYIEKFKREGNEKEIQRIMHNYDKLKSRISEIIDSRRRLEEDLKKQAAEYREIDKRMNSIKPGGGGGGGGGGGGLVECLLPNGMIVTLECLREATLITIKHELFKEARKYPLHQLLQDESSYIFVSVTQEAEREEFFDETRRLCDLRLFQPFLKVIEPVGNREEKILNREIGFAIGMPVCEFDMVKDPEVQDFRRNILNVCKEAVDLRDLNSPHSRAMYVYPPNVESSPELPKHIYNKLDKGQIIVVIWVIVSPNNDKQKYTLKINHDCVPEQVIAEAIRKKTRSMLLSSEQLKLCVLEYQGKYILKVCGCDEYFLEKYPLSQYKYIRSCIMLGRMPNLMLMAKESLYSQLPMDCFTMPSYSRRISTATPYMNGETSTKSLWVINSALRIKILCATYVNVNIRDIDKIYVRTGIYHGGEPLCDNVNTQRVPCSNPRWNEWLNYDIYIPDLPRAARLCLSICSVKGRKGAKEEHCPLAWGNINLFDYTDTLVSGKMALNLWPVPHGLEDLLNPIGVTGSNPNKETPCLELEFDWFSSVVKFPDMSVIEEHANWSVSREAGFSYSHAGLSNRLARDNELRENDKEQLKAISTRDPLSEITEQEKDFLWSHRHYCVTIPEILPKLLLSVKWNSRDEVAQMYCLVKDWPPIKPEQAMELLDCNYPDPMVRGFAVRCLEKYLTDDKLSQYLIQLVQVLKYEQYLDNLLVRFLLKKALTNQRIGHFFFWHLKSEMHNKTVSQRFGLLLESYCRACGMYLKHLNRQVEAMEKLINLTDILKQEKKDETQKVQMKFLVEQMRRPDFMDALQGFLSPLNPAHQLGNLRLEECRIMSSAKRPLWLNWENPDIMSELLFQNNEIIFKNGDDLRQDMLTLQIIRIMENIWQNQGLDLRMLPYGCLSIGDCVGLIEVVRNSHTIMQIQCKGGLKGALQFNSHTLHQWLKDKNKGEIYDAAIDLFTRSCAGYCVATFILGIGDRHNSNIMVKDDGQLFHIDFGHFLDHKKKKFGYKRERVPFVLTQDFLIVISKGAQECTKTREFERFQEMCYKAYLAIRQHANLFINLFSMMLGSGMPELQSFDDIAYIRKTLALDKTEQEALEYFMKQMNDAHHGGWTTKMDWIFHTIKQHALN

Turning to `COc1cc(N2CCc3ncnc(O[C@H]4CCN(C(=O)C5CCOCC5)C4)c3C2)cnc1OC` [Example 5, {(S)-3-[6-(5,6-Dimethoxy-pyridin-3-yl)-5,6,7,8-tetrahydro-pyrido[4,3-d]pyrimidin-4-yloxy]-pyrrolidin-1-yl}-(tetrahydro-pyran-4-yl)-methanone], the IC50 worked out at 455 nM in assay [1], 20 nM at PI3K delta, 125 nM in the assay on murine B cells (setting [2]) and 749 nM at PI3K alpha.

As to `COc1ncc(N2CCc3ncnc(O[C@H]4CCN(C(=O)c5cn(C)cn5)C4)c3C2)cc1C` [Example 20, {(S)-3-[6-(6-Methoxy-5-methyl-pyridin-3-yl)-5,6,7,8-tetrahydro-pyrido[4,3-d]pyrimidin-4-yloxy]-pyrrolidin-1-yl}-(1-methyl-1H-imidazol-4-yl)-methanone], the IC50 was found to be 254 nM in assay [1], 48 nM at PI3K delta, 120 nM in the assay on murine B cells (setting [2]) and 1840 nM against PI3K alpha.

For the molecule `COc1ncc(N2CCc3ncnc(O[C@H]4CCN(C(=O)c5oc(C)nc5C)C4)c3C2)cc1C#N` [Example 28, 5-{4-[(S)-1-(2,4-Dimethyl-oxazole-5-carbonyl)-pyrrolidin-3-yloxy]-7,8-dihydro-5H-pyrido[4,3-d]pyrimidin-6-yl}-2-methoxy-nicotinonitrile], the IC50 worked out at 268 nM in assay [1], 4 nM on PI3K delta, 71.6 nM with murine B cells (setting [2]) and 1210 nM at PI3K alpha.

In the case of `COc1ncc(N2CCc3ncnc(O[C@H]4CCN(c5ccccn5)C4)c3C2)cc1C(F)(F)F` [Example 65, 6-(6-Methoxy-5-trifluoromethyl-pyridin-3-yl)-4-((S)-1-pyridin-2-yl-pyrrolidin-3-yloxy)-5,6,7,8-tetrahydro-pyrido[4,3-d]pyrimidine], the IC50 in assay [1] worked out at 191 nM; on PI3K delta, 23 nM; in the assay on murine B cells (setting [2]), 570 nM; against PI3K alpha, 738 nM.

For `CCC(=O)N1CC[C@H](Nc2ncnc3c2CN(c2cnc(OC)c(C(F)(F)F)c2)CC3)C1` [Example 67, 1-{(S)-3-[6-(6-Methoxy-5-trifluoromethyl-pyridin-3-yl)-5,6,7,8-tetrahydro-pyrido[4,3-d]pyrimidin-4-ylamino]-pyrrolidin-1-yl}-propan-1-one], the IC50 with murine B cells (Mus musculus, 24 h) amounted to 48.3 nM; on PI3K alpha it was 262 nM.

Consider `COc1ncc(N2CCc3ncnc(N[C@H]4CCN(C(=O)c5cocn5)C4)c3C2)cc1C` [Example 79, {(S)-3-[6-(6-Methoxy-5-methyl-pyridin-3-yl)-5,6,7,8-tetrahydro-pyrido[4,3-d]pyrimidin-4-ylamino]-pyrrolidin-1-yl}-oxazol-4-yl-methanone], for which the IC50 on PI3K delta is 17 nM; on PI3K alpha, 781 nM.

For the molecule `COc1ncc(N2CCc3ncnc(N[C@H]4CCN(C(=O)C5CCOC(C)(C)C5)C4)c3C2)cc1C` (stereo partly drawn) [Example 80, (2,2-Dimethyl-tetrahydro-pyran-4-yl)-{(S)-3-[6-(6-methoxy-5-methyl-pyridin-3-yl)-5,6,7,8-tetrahydro-pyrido[4,3-d]pyrimidin-4-ylamino]-pyrrolidin-1-yl}-methanone], the IC50 against PI3K delta was found to be 16 nM; against PI3K alpha, 430 nM.

With `O=C(C1CCOCC1)N1CC[C@H](Nc2ncnc3c2CN(c2cncc(C(F)(F)F)c2)CC3)C1` [Example 84, (Tetrahydro-pyran-4-yl)-{(S)-3-{6-(5-(trifluoromethyl)pyridin-3-yl)-5,6,7,8-tetrahydropyrido[4,3-d]pyrimidin-4-ylamino)pyrrolidin-1-yl}-methanone], the IC50 against PI3K delta was 9 nM; against PI3K alpha it was 58 nM.

Consider `COc1ncc(N2CCc3ncnc(O[C@H]4CCN(C(=O)N5CCOCC5)C4)c3C2)cc1C(F)(F)F` [Example 86, -{(S)-3-[6-(6-Methoxy-5-trifluoromethyl-pyridin-3-yl)-5,6,7,8-tetrahydro-pyrido[4,3-d]pyrimidin-4-yloxy]-pyrrolidin-1-yl}-morpholin-4-yl-methanone], for which the IC50 was 20 nM against PI3K delta and 1330 nM on PI3K alpha.

As to `COc1ncc(N2CCc3ncnc(O[C@H]4CCN(C(=O)N5CCC(O)CC5)C4)c3C2)cc1C(F)(F)F` [Example 87, (4-Hydroxy-piperidin-1-yl)-{(S)-3-[6-(6-methoxy-5-trifluoromethyl-pyridin-3-yl)-5,6,7,8-tetrahydro-pyrido[4,3-d]pyrimidin-4-yloxy]-pyrrolidin-1-yl}-methanone], the IC50 stood at 12 nM at PI3K delta and 452 nM at PI3K alpha.

With `COc1ncc(N2CCc3ncnc(O[C@H]4CCN(C(=O)N(C)CCO)C4)c3C2)cc1C(F)(F)F` [Example 88, (S)-3-[6-(6-Methoxy-5-trifluoromethyl-pyridin-3-yl)-5,6,7,8-tetrahydro-pyrido[4,3-d]pyrimidin-4-yloxy]-pyrrolidine-1-carboxylic acid (2-hydroxy-ethyl)-methyl-amide], the IC50 against PI3K delta is 34 nM; against PI3K alpha, 1340 nM.

As for `COc1ncc(N2CCc3ncnc(O[C@H]4CCN(C(=O)N5CCN(C(C)=O)CC5)C4)c3C2)cc1C(F)(F)F` [Example 89, 1-(4-{(S)-3-[6-(6-methoxy-5-trifluoromethyl-pyridin-3-yl)-5,6,7,8-tetrahydro-pyrido[4,3-d]pyrimidin-4-yloxy]-pyrrolidine-1-carbonyl}-piperazin-1-yl)-ethanone], the figures for the IC50 against PI3K delta and against PI3K alpha were 29 nM and 1190 nM, respectively.

In the case of `COc1ncc(N2CCc3ncnc(O[C@H]4CCN(C(=O)c5cocn5)C4)c3C2)cc1C(F)(F)F` [Example 91, {(S)-3-[6-(6-methoxy-5-trifluoromethyl-pyridin-3-yl)-5,6,7,8-tetrahydro-pyrido[4,3-d]pyrimidin-4-yloxy]-pyrrolidin-1-yl}-oxazol-4-yl-methanone], the IC50 against PI3K delta is 11 nM; against PI3K alpha, 924 nM.

As for `COc1ncc(N2CCc3ncnc(O[C@H]4CCN(C(=O)C5CCN(C(C)=O)CC5)C4)c3C2)cc1C(F)(F)F` [Example 92, 1-(4-{(S)-3-[6-(6-Methoxy-5-trifluoromethyl-pyridin-3-yl)-5,6,7,8-tetrahydro-pyrido[4,3-d]pyrimidin-4-yloxy]-pyrrolidine-1-carbonyl}-piperidin-1-yl)-ethanone], the IC50 against PI3K delta was found to be 9 nM; at PI3K alpha, 2540 nM.

Regarding `COc1ncc(N2CCc3ncnc(O[C@H]4CCN(C(=O)c5cncn5C)C4)c3C2)cc1C(F)(F)F` [Example 93, {(S)-3-[6-(6-Methoxy-5-trifluoromethyl-pyridin-3-yl)-5,6,7,8-tetrahydro-pyrido[4,3-d]pyrimidin-4-yloxy]-pyrrolidin-1-yl}-(3-methyl-3H-imidazol-4-yl)-methanone], the IC50 was determined as 24 nM against PI3K delta and 872 nM against PI3K alpha.

`COc1ccc(N2CCc3ncnc(O[C@H]4CCN(C(=O)C5CCOCC5)C4)c3C2)cn1` [Example 95, {(S)-3-[6-(6-Methoxy-pyridin-3-yl)-5,6,7,8-tetrahydro-pyrido[4,3-d]pyrimidin-4-yloxy)pyrrolidin-1-yl}-(tetrahydro-pyran-4-yl)-methanone]: the IC50 amounted to 53 nM on PI3K delta and 757 nM against PI3K alpha.
